Patent US8691528B2, “Cell penetrating peptide” (Mitsubishi Tanabe Pharma Corporation, priority 2005, dated 2014)
Entries after “also recorded” stand apart in the source; their conditions may differ.

Legend:
Assay type in all cases: cell-based
[1] = tested on: CHO cells, HeLa cells, and Jurkat cells; assay: Confocal microscopic analysis of intracellular translocation of fluorescence-labeled peptides; conditions: fluorescence-labeled peptide, confocal microscope
Description: With the PTD derived from HIV TAT protein shown by SEQ ID NO:50 in the sequence listing as the positive control (in FIG. 1 to FIG. 3, denoted by “Positive” or “TAT”), and a mutant of the TAT-derived PTD shown by SEQ ID NO:51 in the sequence listing, reported by Ulo Langel et al. (Cell-Penetrating Peptides: Processes and Applications, Series: Pharmacology and Toxicology: Basic and Clinical Aspects Volume:3, 2002), as the negative control (in FIG. 1, denoted by “Negative”), the peptides of the 11 sequences selected in Example 1-1 were evaluated.
The peptides of the 11 sequences selected in Example 1-1 were synthesized by the solid phase method, and fluorescently labeled by coupling 5,6-Carboxyfluorescein to the N-terminus of each peptide. Furthermore, the peptides were purified by HPLC to obtain a purity of 70% or more. Subsequently, each fluorescently labeled peptide was dissolved in 10% Dimethyl Sulfoxide (DMSO) to obtain 1 mM (hereinafter referred to as peptide solution).
(§1) Three kinds of cells were used for incorporating the peptides: CHO cells (ATCC NO. CCL-61), HeLa cells, and Jurkat cells. 10^4 CHO cells and HeLa cells and 10^5 Jurkat cells were separately inoculated to a 96-well plate, and cultured for 2 or 3 days. Subsequently, when the cells became confluent, each peptide solution was added to each type of cell, and the cells were incubated for 1 hour. After each type of cell was washed with PBS three times, 100 μL of 0.25% trypsin-1 mM EDTA solution was added, and trypsinization was performed at room temperature for 5 minutes. After 400 μL of PBS (10% FCS) was added to neutralize the trypsin, the cells were washed with 1 mL of HBSS (Hanks' Balanced Salt Solution/produced by Invitrogen) three times. After the washing, the cells were suspended in 50 μL of HBSS and analyzed using a confocal microscope. Measurements and analysis were performed using a confocal differential interference laser microscope system (Bio-Rad, Radience2100/Green He-Ne, 488 nm, microscope: Nikon, ECLIPSE E600).
Of the novel PTD sequences found in Example 5, the KSH2 peptide is highly capable of translocating eGFP into cells; an attempt was made to modify the KSH2 peptide. The KSH2-1 to KSH2-4 peptides (SEQ ID NOS:44 to 47 in the sequence listing) were synthesized, fluorescently labeled, purified and dissolved in the same manner as Example 1-2, a test of translocation into CHO cells was performed, and confocal microscopic analysis was performed.
First, two cases were examined: two cysteines were substituted with alanine (KSH2-1) or with tryptophan (KSH2-2). FITC-labeled peptides were synthesized, and their intracellular translocation efficiencies were examined using CHO, HeLa, and Jurkat cells (FIG. 21, the peptide addition concentration was 50 μM, 25 μM or 12.5 μM).

CHO cells [2] = assay: Confocal microscopic analysis of translocation of fluorescence-labeled peptides into CHO cells
Protocol: as §1
Furthermore, CHO cells were inoculated to a slide chamber (produced by Nunc), 25 μM of each of the KSH1 peptide and positive control was added to the CHO cells, and the intracellular transferability thereof was determined using a confocal microscope.
For KSH2 to KSH10 (SEQ ID NOS:35 to 43 in the sequence listing), a test of translocation into CHO cells was performed in the same manner as Example 1-2, and confocal microscopic analysis was performed. Used for positive control were a PTD sequence derived from HIV TAT (SEQ ID NO:50 in the sequence listing) and the KSH1 peptide; used for negative control was a peptide sequence lacking intracellular transferability (SEQ ID NO:57 in the sequence listing).
In the confocal microscopic analysis, a background correction was performed using cells to which the negative control peptide (SEQ ID NO:57 in the sequence listing) had been added. Thereafter, the positive control PTD1 peptide (SEQ ID NO:50 in the sequence listing) was added, and fluorescence in the cells was examined.
Regarding novel PTD sequence, each peptide was analyzed in a series of 2-fold dilutions at three levels from 50 μM to 12.5 μM. […] The PTD candidate sequences identified here clearly retained the capability of intracellular translocation.

CHO cells [3] = assay: Test of translocation of fluorescence-labeled peptides into CHO cells (FACS and confocal microscopic analysis); conditions: FACS
CHO cells [4] = assay: as above; conditions: for intracellular translocation compared with KSH1 (in words): 12.5 μM and 6.5 μM
HeLa cells = assay: Confocal microscopic analysis of intracellular translocation of synthetic peptides in HeLa cells
Protocol: as §1
In HeLa cells as with CHO cells, intracellular translocation experiments of synthetic peptides of modified PTD sequences were performed by confocal microscopic analysis.

Jurkat cells = assay: Confocal microscopic analysis of intracellular translocation of synthetic peptides in Jurkat cells
Protocol: as §1
In Jurkat cells as well, intracellular translocation experiments of synthetic peptides of modified PTD sequences were performed by confocal microscopic analysis.

## KSH1: novel PTD candidate sequence of 15 amino acids selected from the random peptide library (KLWMRWYSPTTRRYG; Designed peptide to act as PTD(Protein Transduction Domain))
[1]
  localization of the intracellularly transported peptide: detected both in the nucleus and in cytoplasm
[1]; incubated 1 hour
  fluorescence from the peptide in the cells: fluorescence from the KSH1 peptide was observed
  fluorescence intensity compared with the positive control (PTD derived from HIV TAT, SEQ ID NO:50): higher than the fluorescence intensity of the positive control
  intracellular transferability among the peptides of the 11 selected sequences: highest intracellular transferability
CHO cells [2]; slide chamber, 25 μM
  translocation into CHO cells: translocated into all CHO cells

## KSH1-1: KSH1 with the lysine of the lysine/arginine cluster substituted with arginine (RLWMRWYSPTTRRYG; Designed peptide to act as PTD(Protein Transduction Domain))
CHO cells [3]; 6.25 μM
  intracellular translocation compared with KSH1: about 2 times
CHO cells [4]; 50 μM, 25 μM
  intracellular translocation compared with KSH1 (in words): clearly accentuated intracellular translocation
CHO cells [4]; FACS, 12.5 μM
  intracellular translocation compared with KSH1: about 8 times
CHO cells [4]; FACS, 25 μM
  intracellular translocation compared with KSH1: about 2 times
CHO cells [4]; FACS, 50 μM
  decrease of translocation efficiency compared with KSH1: about 20%
HeLa cells; confocal microscopic analysis
  intracellular translocation in HeLa cells (modified peptides with better translocation): better intracellular translocation
Jurkat cells
  intracellular translocation in Jurkat cells as compared to that of SEQ ID NO:37: better intracellular translocation

## KSH2: novel PTD sequence from the 7-time-concentrated library of Jurkat cells (WKCRRQCFRVLHHWN; Designed peptide to act as PTD(Protein Transduction Domain))
CHO cells [2]; Example 5-2, 50 μM to 12.5 μM (FIG. 19: 25 μM)
  intracellular translocation profile compared with PTD1: better intracellular translocation profiles than PTD1
HeLa cells; Example 5-2
  localization of the peptide in HeLa cells: localized as fringing the surface of the cell membrane

## KSH1-7: KSH1 with threonine substituted with tryptophan to form a tryptophan cluster (KLWMRWYSPWTRRYG; Designed peptide to act as PTD(Protein Transduction Domain))
CHO cells [3]; between 25 μM and 6.15 μM
  intracellular translocation compared with KSH1: not less than 3 times
CHO cells [4]; 50 μM, 25 μM
  intracellular translocation compared with KSH1 (in words): accentuated remarkably; also recorded: clearly accentuated intracellular translocation
CHO cells [4]; FACS, 12.5 μM
  intracellular translocation compared with KSH1: not less than 10 times
HeLa cells; confocal microscopic analysis
  intracellular translocation in HeLa cells compared with CHO cells: lower
Jurkat cells
  intracellular translocation in Jurkat cells as compared to that of SEQ ID NO:37: better intracellular translocation
